According to article PMC12028158, “Synthesis and In Vitro Evaluation of the Anticancer Effect of Novel Phosphonium Vindoline Derivatives” (International Journal of Molecular Sciences, 2025):

Assays:
Assay type in all cases: cell-based
[1] = system: NCI-H460; assay: NCI60 one-dose screen; settings: Homo sapiens; NCI-H460, 10 μM, one-dose; read-out: Growth percent
[2] = system: MALME-3M; assay: NCI60 five-dose screen; settings: Homo sapiens; MALME-3M, Melanoma; read-out: GI50
[3] = system: OVCAR-3; assay: NCI60 five-dose screen; settings: Homo sapiens; OVCAR-3, Ovarian Cancer; read-out: GI50
[4] = system: SK-MEL-28; assay: NCI60 five-dose screen; settings: Homo sapiens; SK-MEL-28, Melanoma; read-out: GI50
[5] = system: LOX IMVI; assay: NCI60 five-dose screen; settings: Homo sapiens, Melanoma, read-out: GI50
[6] = system: OVCAR-8; assay: NCI60 five-dose screen; settings: Homo sapiens; OVCAR-8, Ovarian Cancer; read-out: GI50
[7] = system: MCF7; assay: NCI60 five-dose screen; settings: Homo sapiens, MCF7, MCF7, Breast Cancer; read-out: GI50
[8] = system: UACC-257; assay: NCI60 five-dose screen; settings: Homo sapiens, UACC-257, UACC-257, Melanoma; read-out: GI50
[9] = system: MALME-3M; assay: NCI60 one-dose screen; settings: Homo sapiens; MALME-3M, 10 μM, one-dose; read-out: Growth percent
[10] = system: MDA-MB-468; assay: NCI60 five-dose screen; settings: Homo sapiens, MDA-MB-468, MDA-MB-468, Breast Cancer; read-out: GI50
[11] = system: KM12; assay: NCI60 five-dose screen; settings: Homo sapiens, KM12, KM12, Colon Cancer; read-out: GI50
[12] = system: RPMI-8226; assay: NCI60 one-dose screen; settings: Homo sapiens; RPMI-8226, 10 μM, one-dose; read-out: Growth percent
[13] = system: HS 578T; assay: NCI60 one-dose screen; settings: Homo sapiens; HS 578T, 10 μM, one-dose; read-out: Growth percent
[14] = system: HCT-15; assay: NCI60 five-dose screen; settings: Homo sapiens; HCT-15, Colon Cancer; read-out: GI50
[15] = system: MOLT-4; assay: NCI60 one-dose screen; settings: Homo sapiens; MOLT-4, 10 μM, one-dose; read-out: Growth percent
[16] = system: SK-MEL-5; assay: NCI60 one-dose screen; settings: Homo sapiens; SK-MEL-5, 10 μM, one-dose; read-out: Growth percent
[17] = system: SK-MEL-5; assay: NCI60 five-dose screen; settings: Homo sapiens; SK-MEL-5, Melanoma; read-out: GI50
[18] = system: UACC-62; assay: NCI60 one-dose screen; settings: Homo sapiens; UACC-62, 10 μM, one-dose; read-out: Growth percent
[19] = system: HOP-92; assay: NCI60 one-dose screen; settings: Homo sapiens; HOP-92, 10 μM, one-dose; read-out: Growth percent
[20] = system: NCI-H23; assay: NCI60 five-dose screen; settings: Homo sapiens; NCI-H23, Non-small Cell Lung Cancer; read-out: GI50
[21] = system: MDA-MB-435; assay: NCI60 one-dose screen; settings: Homo sapiens; MDA-MB-435, 10 μM, one-dose; read-out: Growth percent
[22] = system: SR; assay: NCI60 one-dose screen; settings: Homo sapiens, 10 μM, one-dose, read-out: Growth percent
[23] = system: HOP-62; assay: NCI60 five-dose screen; settings: Homo sapiens; HOP-62, Non-small Cell Lung Cancer; read-out: GI50
[24] = system: OVCAR-8; assay: NCI60 one-dose screen; settings: Homo sapiens; OVCAR-8, 10 μM, one-dose; read-out: Growth percent
[25] = system: IGROV1; assay: NCI60 one-dose screen; settings: Homo sapiens, IGROV-1; IGROV1, 10 μM, one-dose; read-out: Growth percent
[26] = system: SNB-19; assay: NCI60 one-dose screen; settings: Homo sapiens; SNB-19, 10 μM, one-dose; read-out: Growth percent
[27] = system: SK-MEL-2; assay: NCI60 one-dose screen; settings: Homo sapiens; SK-MEL-2, 10 μM, one-dose; read-out: Growth percent
[28] = system: Renal Cancer panel; assay: NCI60 five-dose screen, panel mean; settings: Homo sapiens; mean over Renal Cancer panel; read-out: GI50 Mean
[29] = system: SN12C; assay: NCI60 one-dose screen; settings: Homo sapiens, 10 μM, one-dose, read-out: Growth percent
[30] = system: 786-0; assay: NCI60 one-dose screen; settings: Homo sapiens; 786-0, 10 μM, one-dose; read-out: Growth percent
[31] = system: SF-295; assay: NCI60 one-dose screen; settings: Homo sapiens; SF-295, 10 μM, one-dose; read-out: Growth percent
[32] = system: SK-MEL-28; assay: NCI60 one-dose screen; settings: Homo sapiens; SK-MEL-28, 10 μM, one-dose; read-out: Growth percent
[33] = system: A549/ATCC; assay: NCI60 five-dose screen; settings: Homo sapiens; A549/ATCC, Non-small Cell Lung Cancer; read-out: GI50
[34] = system: COLO 205; assay: NCI60 one-dose screen; settings: Homo sapiens; COLO 205, 10 μM, one-dose; read-out: Growth percent
[35] = system: EKVX; assay: NCI60 five-dose screen; settings: Homo sapiens, Non-small Cell Lung Cancer, read-out: GI50
[36] = system: MCF7; assay: NCI60 one-dose screen; settings: Homo sapiens; MCF7, 10 μM, one-dose; read-out: Growth percent
[37] = system: SNB-19; assay: NCI60 five-dose screen; settings: Homo sapiens, SNB-19, SNB-19, CNS Cancer; read-out: GI50
[38] = system: T-47D; assay: NCI60 five-dose screen; settings: Homo sapiens, T47D; T-47D, Breast Cancer; read-out: GI50
[39] = system: HL-60(TB); assay: NCI60 five-dose screen; settings: Homo sapiens, HL-60, HL-60(TB), Leukemia; read-out: GI50
[40] = system: SF-268; assay: NCI60 one-dose screen; settings: Homo sapiens; SF-268, 10 μM, one-dose; read-out: Growth percent
[41] = system: Ovarian Cancer panel; assay: NCI60 five-dose screen, panel mean; settings: Homo sapiens; mean over Ovarian Cancer panel; read-out: GI50 Mean
[42] = system: SF-539; assay: NCI60 five-dose screen; settings: Homo sapiens; SF-539, CNS Cancer; read-out: GI50
[43] = system: Leukemia panel; assay: NCI60 five-dose screen, panel mean; settings: Homo sapiens; mean over Leukemia panel; read-out: GI50 Mean
[44] = system: NCI-H23; assay: NCI60 one-dose screen; settings: Homo sapiens; NCI-H23, 10 μM, one-dose; read-out: Growth percent
[45] = system: M14; assay: NCI60 one-dose screen; settings: Homo sapiens; M14, 10 μM, one-dose; read-out: Growth percent
[46] = system: NCI-H322M; assay: NCI60 one-dose screen; settings: Homo sapiens, 10 μM, one-dose, read-out: Growth percent

In the case of `CC[C@]12C=CCN3CC[C@@]4(c5ccc(OC)cc5N(C)[C@H]4[C@@](O)(C(=O)OC)[C@@H]1OC(=O)CCCC[P+](c1ccc(F)cc1)(c1ccc(F)cc1)c1ccc(F)cc1)[C@@H]32` [10c], the activity at 10 µM [1] is reported as 20.3%, the GI50 [2] is reported as 13.5 µM and the GI50 [3] is reported as 9.3 µM. The GI50 [4] was 8.28 µM, the GI50 [5] was 16.8 µM and the GI50 [6] was 29.4 µM. It also gave a GI50 [7] of 11.5 µM, a GI50 [8] of 5.59 µM and an activity at 10 µM [9] of -55.9%. It also gave a GI50 [10] of 2.61 µM, a GI50 [11] of 13.4 µM and an activity at 10 µM [12] of 4.14%. For the same compound, the activity at 10 µM [13] was -2.23%, the GI50 [14] was greater than 100 µM and the activity at 10 µM [15] was 29.1%. It also gave an activity at 10 µM [16] of -59.6%, a GI50 [17] of 17.1 µM and an activity at 10 µM [18] of -69.6%. It also gave an activity at 10 µM [19] of -12.2%, a GI50 [20] of 20.1 µM and an activity at 10 µM [21] of -16%. The activity at 10 µM [22] was 28.8%, the GI50 [23] was 25.5 µM and the activity at 10 µM [24] was 20%. It also gave an activity at 10 µM [25] of -42.8%, an activity at 10 µM [26] of 6.61% and an activity at 10 µM [27] of -54%. For the same compound, the GI50 [28] was 56.7 µM, the activity at 10 µM [29] was 10.6% and the activity at 10 µM [30] was 87%. It also gave an activity at 10 µM [31] of 78.5%, an activity at 10 µM [32] of -54.9% and a GI50 [33] of 33.8 µM. It also gave an activity at 10 µM [34] of -43.4%, a GI50 [35] of 21 µM and an activity at 10 µM [36] of 5.18%. It also gave a GI50 [37] of 13 µM, a GI50 [38] of 11.5 µM and a GI50 [39] of 2.11 µM. The activity at 10 µM [40] was 28.1%, the GI50 [41] was 32.5 µM and the GI50 [42] was 21.9 µM. It also gave a GI50 [43] of 9.86 µM, an activity at 10 µM [44] of 23.6% and an activity at 10 µM [45] of 19.7%. For the same compound, the activity at 10 µM [46] was 52.9%.
